Experimental data: the supplement of paper PMC10307832

Legend:
Assay in all cases: relative viability (nuclei count vs DMSO), 5 days (fraction); higher = more cells survive
VX-11e + Foretinib = compound: CC1=CN=C(N=C1C2=CNC(=C2)C(=O)N[C@H](CO)C3=CC(=CC=C3)Cl)NC4=C(C=C(C=C4)F)Cl [VX-11e] + COc1cc2c(Oc3ccc(NC(=O)C4(C(=O)Nc5ccc(F)cc5)CC4)cc3F)ccnc2cc1OCCCN1CCOCC1 [Foretinib] (partner 0.25 µM)
Summary of the method: (§1)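 Nuclei were stained with Hoechst during a one-step fixation (final 0.05% Triton X-100, 1% formaldehyde, 1 ug/ml Hoechst) carried out 5 days after dosing, then counted on 4× images. The cells, lung cancer lines in 1536-well plates, had been dosed by pin tool the day after seeding with one drug alone or a fixed anchor-drug dose plus five library-drug doses (not always all listed) in √10 steps. Relative viability is the nuclei count in treated wells divided by that in vehicle wells, and each value is the median of duplicate plates.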

VX-11e + Luminespib = compound: CC1=CN=C(N=C1C2=CNC(=C2)C(=O)N[C@H](CO)C3=CC(=CC=C3)Cl)NC4=C(C=C(C=C4)F)Cl [VX-11e] + CCNC(=O)c1noc(-c2cc(C(C)C)c(O)cc2O)c1-c1ccc(CN2CCOCC2)cc1 [Luminespib] (partner 0.01 µM)
Summary of the method: as §1

VX-11e + Tozasertib = compound: CC1=CN=C(N=C1C2=CNC(=C2)C(=O)N[C@H](CO)C3=CC(=CC=C3)Cl)NC4=C(C=C(C=C4)F)Cl [VX-11e] + Cc1cc(Nc2cc(N3CCN(C)CC3)nc(Sc3ccc(NC(=O)C4CC4)cc3)n2)n[nH]1 [Tozasertib] (partner 0.1 µM)
Summary of the method: as §1

VX-11e + AZD7762 = compound: CC1=CN=C(N=C1C2=CNC(=C2)C(=O)N[C@H](CO)C3=CC(=CC=C3)Cl)NC4=C(C=C(C=C4)F)Cl [VX-11e] + NC(=O)Nc1cc(-c2cccc(F)c2)sc1C(=O)N[C@H]1CCCNC1 [AZD7762] (partner 0.2 µM)
Summary of the method: as §1

Cell Line | relative viability (VX-11e + Foretinib; first compound 0.04 µM) | relative viability (VX-11e + Foretinib; first compound 0.1265 µM) | relative viability (VX-11e + Foretinib; first compound 0.4 µM) | relative viability (VX-11e + Foretinib; first compound 1.265 µM) | relative viability (VX-11e + Foretinib; first compound 4 µM) | relative viability (VX-11e + Luminespib; first compound 0.04 µM) | relative viability (VX-11e + Luminespib; first compound 0.1265 µM) | relative viability (VX-11e + Luminespib; first compound 0.4 µM) | relative viability (VX-11e + Luminespib; first compound 1.265 µM) | relative viability (VX-11e + Luminespib; first compound 4 µM) | relative viability (VX-11e + Tozasertib; first compound 0.04 µM) | relative viability (VX-11e + Tozasertib; first compound 0.1265 µM) | relative viability (VX-11e + Tozasertib; first compound 0.4 µM) | relative viability (VX-11e + Tozasertib; first compound 1.265 µM) | relative viability (VX-11e + Tozasertib; first compound 4 µM) | relative viability (VX-11e + AZD7762; first compound 0.04 µM) | relative viability (VX-11e + AZD7762; first compound 0.1265 µM) | relative viability (VX-11e + AZD7762; first compound 0.4 µM) | relative viability (VX-11e + AZD7762; first compound 1.265 µM) | relative viability (VX-11e + AZD7762; first compound 4 µM)
A549 | 1.02 | 0.973 | 0.922 | 0.321 | 0.0913 |  |  |  |  |  |  |  |  |  |  |  |  |  |  | 
COR-L23 | 1.1 | 0.939 | 0.964 | 0.749 | 0.373 | 0.787 | 0.577 | 0.5 | 0.532 | 0.234 | 0.157 | 0.142 | 0.138 | 0.124 | 0.127 |  |  |  |  | 
COR-L 105 | 1.39 | 1.1 | 0.963 | 0.562 | 0.653 | 0.978 | 0.391 | 0.825 | 0.592 | 0.375 | 0.341 | 0.342 | 0.367 | 0.721 | 0.268 |  |  |  |  | 
Calu-6 | 0.969 | 0.869 | 0.829 | 0.397 | 0.103 |  |  |  |  |  |  |  |  |  |  |  |  |  |  | 
HCC-44 |  |  |  |  |  | 1.17 | 0.96 | 0.364 | 0.556 | 0.916 | 0.975 | 0.863 | 0.182 | 0.396 | 0.549 | 1.03 | 0.904 | 1.01 | 1.07 | 1.13
HCC-78 |  | 0.54 | 0.542 | 0.514 | 0.496 |  |  |  |  |  |  | 0.538 | 0.386 | 0.324 | 0.487 | 0.58 | 0.814 | 0.725 | 0.371 | 0.527
HCC-366 | 1.01 | 0.876 |  | 0.851 | 0.701 |  |  |  |  |  | 0.12 | 0.0759 |  | 0.0517 | 0.0473 | 0.429 | 0.235 |  | 0.21 | 0.16
IA-LM | 1.09 | 1.17 | 1.22 | 0.486 | 0.0917 |  |  |  |  |  |  |  |  |  |  |  |  |  |  | 
NCI-H520 | 0.746 | 0.715 | 0.69 | 0.919 | 0.569 | 0.205 | 0.183 | 0.19 | 0.272 | 0.207 | 0.464 | 0.401 | 0.397 | 0.468 | 0.4 |  |  |  |  | 
NCI-H522 |  |  |  |  |  | 1.23 | 1.28 | 1.05 | 0.82 | 0.832 | 0.532 | 0.56 | 0.553 | 0.467 | 0.503 | 0.812 | 0.969 | 0.82 | 0.671 | 0.671
NCI-H661 | 1.03 | 1.04 | 1.05 | 1.07 | 0.66 | 0.981 | 0.913 | 0.937 | 0.907 | 0.603 | 0.323 | 0.354 | 0.349 | 0.382 | 0.379 |  |  |  |  | 
NCI-H1299 | 1.2 | 1.08 | 1.11 | 1.23 | 0.52 |  |  |  |  |  |  |  |  |  |  |  |  |  |  | 
NCI-H1563 | 1.02 | 0.832 | 0.862 | 0.922 | 0.763 | 0.522 | 0.555 | 0.488 | 0.508 | 0.465 |  |  |  |  |  |  |  |  |  | 
NCI-H1648 |  |  |  |  |  |  |  |  |  |  | 0.515 | 0.378 | 0.566 | 0.292 | 0.318 |  | 0.639 | 0.641 | 0.703 | 0.733
NCI-H1650 | 1.14 | 0.972 |  | 1.02 | 0.711 | 0.195 | 0.185 |  | 0.192 | 0.186 | 0.426 | 0.309 |  | 0.261 | 0.203 |  |  |  |  | 
NCI-H1703 | 0.383 | 0.33 |  | 0.317 | 0.28 |  |  |  |  |  |  |  |  |  |  |  |  | 0.141 | 0.121 | 0.122
NCI-H1792 |  |  |  |  |  | 0.419 | 0.351 | 0.216 | 0.417 | 0.225 |  |  |  |  |  |  | 0.623 |  | 0.413 | 0.0597
NCI-H2009 | 1.33 | 1.18 | 1.06 | 0.857 | 0.509 | 1.07 | 1.03 | 1.03 | 1.08 | 0.349 | 0.714 | 0.64 | 0.591 | 0.4 | 0.171 |  |  |  |  | 
NCI-H2023 | 0.811 | 0.771 |  | 0.513 | 0.42 | 0.683 | 0.791 | 0.701 | 0.6 | 0.361 | 0.279 | 0.161 | 0.161 | 0.142 | 0.0967 |  |  |  |  | 
NCI-H2228 | 0.79 | 0.936 |  | 0.482 | 0.275 | 0.145 | 0.138 |  | 0.148 | 0.12 | 0.248 | 0.202 |  | 0.149 | 0.115 |  |  |  |  | 
SK-LU-1 | 0.882 | 0.779 |  | 0.574 | 0.224 | 0.179 | 0.196 |  | 0.199 | 0.177 | 0.348 | 0.298 |  | 0.338 | 0.194 |  |  |  |  | 
SK-MES-1 | 1.03 | 0.881 | 0.857 | 1.02 | 0.419 | 0.838 | 0.634 | 0.766 | 0.406 | 0.262 | 0.884 | 0.873 | 0.844 | 0.908 | 0.376 |  |  |  |  | 
SW 1573 | 0.947 | 0.902 | 0.78 | 0.86 | 0.708 | 0.233 | 0.206 | 0.23 | 0.384 | 0.133 | 0.237 | 0.21 | 0.224 | 0.154 | 0.11 |  |  |  |  | 
UMC-11 | 1.05 | 0.946 | 0.986 | 0.976 | 0.905 | 1.01 | 1.02 | 1.02 | 0.948 | 0.94 | 0.185 | 0.201 | 0.206 | 0.182 | 0.19 |  |  |  |  | 
